Tests used:
Format in all cases: cell-based, human
[1] = test system: APOBEC3A-mediated RNA editing; assay: SDHB c.136C>U site-specific RNA editing assay (RT-PCR) in monocyte-enriched PBMCs; conditions: for induction of APOBEC3A-mediated RNA editing in normoxia / effect on hypoxia-induced RNA editing: atpenin A5 1-3 μM, DMOG 1 mM, myxothiazol 1 μM; for induction of APOBEC3A-mediated RNA editing in normoxia: TTFA 1 mM; for effect on hypoxia-induced RNA editing: hypoxia 1% O2
Description: Peripheral blood mononuclear cells of anonymous platelet donors were isolated from peripheral blood in Trima Accel™ leukoreduction system chambers (Terumo BCT®, Lakewood, Colo.) after thrombocytapheresis, in accordance with a protocol approved by the institutional review board of Roswell Park Cancer Institute. A density gradient centrifugation method using polysucrose-containing Lymphocyte Separation Medium (Mediatech®, Manassas, Va.) was used for PBMC isolation. MEPs were prepared from PBMCs using the well-established cold aggregation method with slight modification (Mentzer et al 1986). Briefly, PBMCs were subjected to gentle rocking at 4° C. for an hour and aggregated cells that sedimented through fetal bovine serum (FBS; VWR®, Radnor, Pa.) were collected as MEPs (monocyte-enriched PBMCs) after 0.5-3 hours for high monocyte enrichment (˜70% monocytes as assessed by immunofluorocytometry for CD14), or after 8-16 hours for mild enrichment (˜20%-40% monocytes). MEPs were cultured at a density of at least 20 million per ml in 1 or 2 ml per well of 6- or 12-well standard tissue culture plates under 5% CO2 in RPMI-1640 medium (Mediatech®) with 10% FBS, and 100 U per ml penicillin and 100 μg per ml streptomycin (Mediatech®). CD14 positive monocytes were separated in certain experiments from MEPs that were initially cultured for 1 or 2 days using magnetic beads and donut-shaped magnet (EasySep cell isolation kit purchased from STEMCELL Technologies).
For hypoxia, cells were cultured under 1% O2, 5% CO2 and 94% N2 in an XVIVO SYSTEM® (a cell culture system) (Biospherix®, Lacona, N.Y.). ‘Universal’ type I IFN, a hybrid of N-terminal IFNα-2 and C-terminal IFNα-1, produced in E. coli were obtained from PBL Assay Science® (Piscataway, N.J.), and respectively used at 300 U per ml. Unless noted otherwise, hypoxia and/or interferon treatments were for 24 hours. Differential viability of MEPs after 1-day culture in normoxia versus hypoxia was not observed as evaluated by Trypan blue stain.
SDHB c.136C>U site-specific RNA editing, catalyzed by APOBEC3A cytidine deaminase, was quantified by RT-PCR as described (Baysal et al 2013). Total RNA, genomic DNA and plasmid DNA were isolated using material and methods provided with TRIzol™, DNA Wizard Genomic DNA Purification Kit (Promega®), and Plasmid Kit (Qiagen®, Germantown, Md.), respectively. RNA/DNA was quantified by spectrophotometry on a Nanodrop™ 2000 instrument (Thermo Fisher®). Proteins were quantified using Bio-Rad® Dc™ assay with bovine serum albumin standards. Statistical tests were two-tailed and were performed using R 3.0, Excel™ 2010 (Microsoft®, Redmond, Wash.), or Prism™ 6.0 (GraphPad®, San Diego, Calif.) software.
Atpenin A5 is purchased from Cayman Chemical (CAS 119509-24-9), dissolved in DMSO and used in final concentrations of 1-3 μM in culture. DMOG (dimethyloxalylglycine; CAS 89464-63-1) and myxothiazol (CAS 76706-55-3) are purchased from Sigma-Aldrich, dissolved in DMSO and used in final concentrations of 1 mM and 1 μM, respectively.

monocyte-enriched PBMCs = assay: Oxygen consumption assay (oxygen-quenched fluorescent dye) in monocyte-enriched PBMCs; conditions: averages from 3 donors' monocyte-enriched PBMCs
Description: (§1) FIG. 6. Inhibition of complex II reduces oxygen consumption and antagonizes HIF-1. […] DMSO indicates the untreated vehicle control. […] The oxygen levels are measured by a fluorescent dye, which is quenched by oxygen (i.e., more fluorescence, less oxygen). Results are averages from 3 donors' monocyte-enriched PBMCs with SEMs shown in dashed lines.
(§2) We used primary human monocytes and 293T HEK cells to investigate their response to hypoxia and to cell-permeable complex II inhibitors (atpenin A5, TTFA) using cell culture methods, high throughout RNA sequencing, qPCR, immunoblotting and oxygen consumption assays.

HIF1α [2] = assay: HIF1α stabilization (immunoblotting) in 293T cells; conditions: for HIF1α stabilization in mild hypoxia: 6% O2
Description: as §1, §2

[3] = test system: hypoxia-related gene expression in monocytes; assay: RNA seq and RT-qPCR of hypoxic gene expression in monocytes
Text: FIG. 4. AtA5 treatment in normoxia induces hypoxic gene expression in monocytes.
as §2
On the contrary, AtA5 reduces cellular oxygen consumption in peripheral blood mononuclear cells and inhibits HIF-la stabilization in mildly hypoxic conditions in 293T cells (FIG. 6).

HIF1α [4] = assay: HIF1α stabilization (immunoblotting) in CD14 negative lymphocytes and CD14 positive monocytes; conditions: FIG. 5
Text: FIG. 5. HIF1α is stabilized in CD14 negative lymphocytes, but not in CD14 positive monocytes in hypoxia (H, 1% O2, day 1). […] CD14± cells are unsorted PBMCs.
as §2

| Compound | induction of APOBEC3A-mediated RNA editing in normoxia ([1]; normoxia, MEPs) | effect on hypoxia-induced RNA editing ([1]; MEPs) | oxygen consumption relative to control cells (monocyte-enriched PBMCs) | HIF1α stabilization in mild hypoxia (HIF1α [2]; 293T cells, day 1) | HIF1α stabilization in normoxia in lymphocytes and monocytes (HIF1α [4]) | other results |
| --- | --- | --- | --- | --- | --- | --- |
| O=C(CC(=O)C(F)(F)F)c1cccs1 [TTFA, thenoyltrifluoroacetone] | induces RNA editing in normoxia | – | – | – | – | – |
| CO/C(=C/C(N)=O)[C@H](C)[C@H](/C=C/c1csc(-c2csc([C@@H](C)/C=C/C=C/C(C)C)n2)n1)OC [myxothiazol] | did not induce RNA editing in normoxia | inhibited hypoxia-induced RNA editing | completely inhibit oxygen consumption | inhibits it both in mild and severe hypoxia | – | HIF1α stabilization in severe hypoxia (HIF1α [2]; 1% O2, 293T cells, day 1): inhibits it both in mild and severe hypoxia |
| COc1[nH]c(=O)c(C(=O)[C@@H](C)C[C@H](C)[C@@H](Cl)CCl)c(O)c1OC [atpenin A5] | induced APOBEC3A-mediated RNA editing in normoxia | without inhibiting the hypoxia-induced RNA editing | reduces oxygen consumption relative to control cells (blue), but does not abolish it | inhibits HIF1α stabilization in mild hypoxia | does not stabilize HIF1α in normoxia in lymphocytes or monocytes | cell population in which induced RNA editing occurs ([1]; CD14 positive and CD14 negative cells separated from MEPs after culture): induced RNA editing occurs in CD14+ monocytes; RNA editing levels induced in normoxia relative to hypoxic stimulation ([1]; normoxia versus hypoxia, FIG. 1): comparable to levels observed upon hypoxic stimulation; effect on RNA editing in combination with interferon ([1]; normoxia, MEPs, type I IFN 300 U per ml): synergistic effect with interferon-induced RNA editing levels; monocyte-enriched PBMCs from donors (biological replicates) with normoxic induction of RNA editing ([1]; normoxia, p=0.00013, two-sided Wilcoxon pairwise test): 19 of 19; effect on A3A-mediated RNA editing or transcript induction in hypoxic monocytes ([3]; hypoxic monocytes): does not inhibit A3A-mediated RNA editing or transcript induction in hypoxic monocytes; expression of hypoxia-related and pro-angiogenic genes (RT-qPCR) ([3]; normoxic treatment of monocytes): causes upregulation of many hypoxia-related and pro-angiogenic genes including VEGFA, CXCL8 (IL8) and CXCR4; transcriptome-scale changes (RNA seq and RNA editing analyses) ([3]; normoxic treatment of monocytes, FIG. 4): closely mimics the hypoxia effects in inducing transcriptome-scale changes; HIF-1α stabilization in normoxia in 293T cells (HIF1α [2]; normoxic treatment, 293T embryonic kidney cells, FIG. 6): does not stabilize HIF-la |
| antimycin A | – | – | completely inhibit oxygen consumption | – | – | – |
| COC(=O)CNC(=O)C(=O)OC [DMOG, dimethyloxalylglycine] | did not induce RNA editing in normoxia | inhibited hypoxia-induced RNA editing | – | – | stabilizes HIF1α in both lymphocytes and monocytes | – |

Reference: patent publication US11007182B2, “Use of atpenin to activate innate immunity” (Health Research, Inc., priority 2015, dated 2021)
